{"source": "patent US11267826B2", "about": "“Penicillin-binding protein inhibitors” (priority 2017, dated 2022)", "tested_on": "E. coli DH5a harboring SHV-5", "test": "Broth microdilution MIC, engineered E. coli expressing SHV-5", "format": "cell-based", "conditions": "Escherichia coli, read-out: MIC, β-lactamase SHV", "method": "To determine the ability of test compounds to potentiate the inhibition of the growth of bacterial strains, classic cell based broth microdilution MIC assays were employed. MIC assays are performed according to CLSI methods except where otherwise noted (CLSI, 2011 and CLSI, 2009). The reference strain S. aureus ATCC 29213 and the hyper-permeable E. coli 901C were used to determine the ability of the PBP compounds to inhibit bacterial growth. Briefly, cryo-preserved bacterial cultures of clinical strains are streaked for isolation on appropriate agar medium, in this case Mueller Hinton II agar. Following incubation to allow formation of colonies these plates are sealed with parafilm and stored refrigerated for up to two weeks. For preparation of assay inocula and to ensure low variability, at least 5 colonies are picked from the agar plates with an inoculating loop and aseptically transferred to a culture tube containing 3 mL of Mueller-Hinton Broth (supplemented with divalent cations to required levels based on Manufacturers' certification). The broth culture is grown for 3-5 hours at 37° C. with shaking at 200 rpm. Meanwhile, 2-fold serial dilutions of test compounds are conducted in a 96 well plate with a final volume of 75 μL per well at 2-fold the final desired concentration. After the dilution plates are set up the growing cultures are then diluted in a cuvette containing MH II broth and the optical density is measured at 600 nm. Inocula are diluted such that 75 μL of this culture in Mueller-Hinton Broth results in a starting bacterial concentration of 5×10^5 CFU/mL when added to the dilution plates. The plates are incubated 16-20 hours at 37° C. The MIC is read visually as the lowest concentration well with no bacterial growth.\nTo determine if test compounds were affected by various known β-lactamases, the inhibition of the growth of engineered strains of Escherichia coli harboring select single β-lactamases were tested. […]", "data": [{"smiles": "Nc1nc(/C(=N/O)C(=O)N[C@H]2Cc3cccc(C(=O)O)c3OB2O)cs1", "note": "[Example 6, (R,Z)-3-(2-(2-aminothiazol-4-yl)-2-(hydroxyimino)acetamido)-2-hydroxy-3,4-dihydro-2H-benzo[e][1,2]oxaborinine-8-carboxylic Acid]", "values": [{"measurement": "MIC", "value": 16, "unit": "µg/mL"}]}]}
